Source: the supplement of paper PMC10307832

Assays:
Experiment in all cases: relative viability (nuclei count vs DMSO), 5 days (fraction); higher = more cells survive
[1] = compound: CC1CC(=O)N(C2=CN=C(N=C2N1C3CCCC3)NC4=C(C=C(C=C4)C(=O)NC5CCN(CC5)C)OC)C [NPK76-II-72-1] + CC(C)C[C@H](NC(=O)[C@H](Cc1ccccc1)NC(=O)c1cnccn1)B(O)O [Bortezomib] (partner 0.002 µM)
Summary of the method: (§1)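 Cells from lung cancer lines were seeded into 1536-well plates and, one day later, dosed by pin tool. Treatments were either a single drug or a fixed dose of an anchor drug with five library-drug doses (not always all listed) in √10 steps. After 5 days, nuclei were stained in a one-step fixation (final 0.05% Triton X-100, 1% formaldehyde, 1 ug/ml Hoechst) and counted on 4× images, and relative viability is the treated-to-vehicle nuclei ratio, as the median of duplicate plates.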

BI-2536 + Dasatinib = compound: CC[C@@H]1C(=O)N(C)c2cnc(Nc3ccc(C(=O)NC4CCN(C)CC4)cc3OC)nc2N1C1CCCC1 [BI-2536] + Cc1nc(Nc2ncc(C(=O)Nc3c(C)cccc3Cl)s2)cc(N2CCN(CCO)CC2)n1 [Dasatinib] (partner 0.075 µM)
Summary of the method: as §1

[2] = compound: CC1CC(=O)N(C2=CN=C(N=C2N1C3CCCC3)NC4=C(C=C(C=C4)C(=O)NC5CCN(CC5)C)OC)C [NPK76-II-72-1] + Nc1ncn([C@H]2C[C@H](O)[C@@H](CO)O2)c(=O)n1 [Decitabine] (partner 2 µM)
Summary of the method: as §1

BI-2536 + Luminespib = compound: CC[C@@H]1C(=O)N(C)c2cnc(Nc3ccc(C(=O)NC4CCN(C)CC4)cc3OC)nc2N1C1CCCC1 [BI-2536] + CCNC(=O)c1noc(-c2cc(C(C)C)c(O)cc2O)c1-c1ccc(CN2CCOCC2)cc1 [Luminespib] (partner 0.01 µM)
Summary of the method: as §1

Cell Line	relative viability ([1]; first compound 0.01 µM)	relative viability ([1]; first compound 0.03162 µM)	relative viability ([1]; first compound 0.1 µM)	relative viability ([1]; first compound 0.3162 µM)	relative viability ([1]; first compound 1 µM)	relative viability (BI-2536 + Dasatinib; first compound 0.01 µM)	relative viability (BI-2536 + Dasatinib; first compound 0.03162 µM)	relative viability (BI-2536 + Dasatinib; first compound 0.1 µM)	relative viability (BI-2536 + Dasatinib; first compound 0.3162 µM)	relative viability (BI-2536 + Dasatinib; first compound 1 µM)	relative viability ([2]; first compound 0.01 µM)	relative viability ([2]; first compound 0.03162 µM)	relative viability ([2]; first compound 0.1 µM)	relative viability ([2]; first compound 1 µM)	relative viability (BI-2536 + Luminespib; first compound 0.01 µM)	relative viability (BI-2536 + Luminespib; first compound 0.03162 µM)	relative viability (BI-2536 + Luminespib; first compound 0.1 µM)	relative viability (BI-2536 + Luminespib; first compound 0.3162 µM)	relative viability (BI-2536 + Luminespib; first compound 1 µM)	relative viability ([2]; first compound 0.3162 µM)
EBC-1	0.543	0.63	0.608	0.562	0.713															
EKVX	1.01	0.998	1.03	0.637	1.04	0.742	0.653	0.586	0.399	0.174	0.329	0.353	0.34	0.387	0.911	0.955	0.8	0.292	0.123	
EMC-BAC-2	1.06	1.15	0.951	1.01	1.12	0.3	0.304	0.209	0.15	0.14	0.978	1.01	0.986	1.08	1.22	1.19	1.08	0.251	0.22	0.969
EPLC-272H	0.984	0.916	0.773	0.829	0.975	0.327	0.357	0.0724	0.0766	0.0856	0.407	0.387	0.371	0.37	0.293	0.166	0.153	0.102	0.0894	0.379
H3255	0.841	0.642	0.647		1.11	0.315	0.237	0.235	0.27	0.25	0.622	0.58	0.614	0.688	0.846	1.13	0.691	0.239	0.359	
HARA	1.08	1.2	1.04	1.12	1.22	0.265	0.287	0.328	0.058	0.0777	0.643	0.57	0.616	0.451	0.784	1.46	0.148	0.0637	0.0578	
HCC-15	0.995	1.11	1.05	1.02	1.02	0.557	0.417	0.192	0.112	0.102	0.559	0.675	0.638	0.671	0.265	0.339	0.144	0.116	0.134	0.682
HCC-44	0.836	0.877	0.87	0.843	1.03						0.991	1.08	0.931	0.968	1.03	0.261	0.204	0.104	0.12	0.922
HCC-78	0.532	0.565	0.398	0.52	0.998	0.454	0.374	0.416	0.25	0.17	0.711	0.696	0.549	0.653						0.699
